Where two headings read alike, the source gives them in different places.
Assays:
[1] = molecular target: T1, CB1 cannabinoid receptor (Rattus norvegicus, UniProt P20272); assay: CB1 receptor binding, [3H]CP-55,940 displacement; settings: rat forebrain membranes
T1 construct: membranes were prepared from rat forebrain membranes; from tissue; host or cells: rat forebrain
Experimental: Some inventive analogs were tested for CB2 receptor binding affinity and for CB1 receptor affinity (to determine selectivity). […] The lower the Ki value, the higher the binding affinity. […] For the CB1 receptor binding studies, membranes were prepared from rat forebrain membranes according to the procedure of P. R. Dodd et al, A Rapid Method for Preparing Synaptosomes: Comparison with Alternative Procedures, Brain Res., 107-118 (1981). The binding of the novel analogues to the CB1 cannabinoid receptor was assessed as described in W. A. Devane et al, Determination and Characterization of a Cannabinoid Receptor in a Rat Brain, Mol. Pharmacol., 34, 605-613 (1988) and A. Charalambous et al, 5′-azido Δ^8-THC: A Novel Photoaffinity Label for the Cannabinoid Receptor, J. Med. Chem., 35, 3076-3079 (1992) with the following changes. The above articles are incorporated by reference herein.
Membranes, previously frozen at −80° C., were thawed on ice. To the stirred suspension was added three volumes of TME (25 mM Tris-HCl buffer, 5 mM MgCl2 and 1 mM EDTA) at a pH 7.4. The suspension was incubated at 4° C. for 30 min. At the end of the incubation, the membranes were pelleted and washed three times with TME.
(§1) The treated membranes were subsequently used in the binding assay described below. Approximately 30 μg of membranes were incubated in silanized 96-well microtiter plate with TME containing 0.1% essentially fatty acid-free bovine serum albumin (BSA), 0.8 nM [^3H] CP-55,940, and various concentrations of test materials in a final volume of 200 μL. The assays were incubated for 1 hour at 30° C. and then immediately filtered using Packard Filtermate 196 harvester and Whatman GF/C filterplates and washed with wash buffer (TME) containing 0.5% BSA. Radioactivity was detected using MicroScint 20 scintillation cocktail added directly to the dried filterplates, and the filterplates were counted using a Packard Instruments Top-Count. Nonspecific binding was assessed using 100 nM CP-55,940. Data collected from three independent experiments performed with duplicate determinations was normalized between 100% and 0% specific binding for [^3H] CP-55,940, determined using buffer and 100 nM CP-55,940. The normalized data was analyzed using a 4-parameter nonlinear logistic equation to yield IC50 values.

[2] = molecular target: T2, FAAH (fatty acid amide hydrolase) (Rattus norvegicus, UniProt P97612); assay: FAAH screening: inhibition of anandamide metabolism to arachidonic acid; format: biochemical; settings: 25 nmoles compound with 25 nmoles AEA, 75 μg enzyme, 250 μL, 15 min
T2 construct: Anandamide Amidase Activity in Rat Brain Microsomes; from tissue; host or cells: rat brain microsomes (by the cited procedure)
T2 sequence (P97612 1-579): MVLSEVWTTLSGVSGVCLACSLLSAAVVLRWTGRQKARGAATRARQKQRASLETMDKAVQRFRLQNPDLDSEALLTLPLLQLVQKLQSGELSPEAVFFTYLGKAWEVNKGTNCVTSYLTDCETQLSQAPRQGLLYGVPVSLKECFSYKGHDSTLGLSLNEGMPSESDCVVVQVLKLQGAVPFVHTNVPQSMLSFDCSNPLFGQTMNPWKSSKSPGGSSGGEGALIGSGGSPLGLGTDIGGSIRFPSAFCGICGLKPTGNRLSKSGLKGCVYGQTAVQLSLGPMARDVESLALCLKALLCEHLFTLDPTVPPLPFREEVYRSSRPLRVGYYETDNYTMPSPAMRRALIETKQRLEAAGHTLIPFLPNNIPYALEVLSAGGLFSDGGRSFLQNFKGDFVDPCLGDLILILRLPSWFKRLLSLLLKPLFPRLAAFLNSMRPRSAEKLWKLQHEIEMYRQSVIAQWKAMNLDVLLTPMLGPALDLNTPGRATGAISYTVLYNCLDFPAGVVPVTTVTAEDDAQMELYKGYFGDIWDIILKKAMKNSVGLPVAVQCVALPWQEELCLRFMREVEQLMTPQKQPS
Experimental: The FAAH (fatty acid amide hydrolase) enzyme preparation was obtained according to the procedure of Lang and Makriyannis et al High Performance Liquid Chromatographic Determination of Anandamide Amidase Activity in Rat Brain Microsomes, Analytical Biochemistry (238): 40-45, 1996.
All compound solutions were made to a concentration of 10 mM in DMSO. Three tests were performed on each compound: hydrolysis, to determine the stability of the compound in assay conditions without the enzyme present; metabolism, to determine the stability of the compound with the enzyme present; and inhibition of anandamide (native substrate) metabolism to arachidonic acid.
Again the reaction mixture was treated in the same manner as described above and the concentrations of AEA and AA were calculated using external standards. Percent inhibition was calculated using the following equation: % Inhib.=(AA15-AA0)i/(AA15-AA0)s where (AA15-AA0)c is the amount of arachidonic acid formed over 15 minutes from AEA with the inhibitor present and (AA15-AA0)s is the amount of arachidonic acid formed over 15 minutes from AEA when the inhibitor is not present. […] The reaction mixtures were treated as described above and the amount of AA formed was calculated. The software package GraphPad Prism was utilized to calculate IC50 and Ki. HPLC Conditions:
Chromatographic separation was achieved using an Ultrasphere ODS Pre-column (4.6×45 mm) from Beckman. Hardware consisted of a Waters Millennium HPLC system with a 20 μL injection loop. The mobile phase consisted of 8.5% o-phosphoric acid:acetonitrile (3:7), run isocratically at a rate of 1 mL/min and detection at 204 nm. The total run time was 8 minutes with AEA eluting at 2.2 minutes and AA at 6.0 minutes.

[3] = molecular target: T3, CB2 receptor (Mus musculus, UniProt P47936); assay: CB2 receptor binding, [3H]CP-55,940 displacement; settings: mouse spleen membranes
T3 construct: membranes were prepared from frozen mouse spleen; from tissue; host or cells: mouse spleen
Experimental: as §1
For the CB2 receptor binding studies, membranes were prepared from frozen mouse spleen essentially according to the procedure of P. R. Dodd et al, A Rapid Method for Preparing Synaptosomes: Comparison with Alternative Procedures, Brain Res., 226, 107-118 (1981) which is incorporated by reference herein. Silanized centrifuge tubes were used throughout to minimize receptor loss due to adsorption. The CB2 binding assay was conducted in the same manner as for the CB1 binding assay. The binding affinities (Ki) were also expressed in nanomoles (nM).

[4] = system: anandamide transporter; assay: [3H]Anandamide transporter competition assay; format: cell-based; settings: human CCF-STG1 astrocytoma cells, 10 nM [3H]anandamide
Experimental: Human CCF-STG1 astrocytoma cells (American Type Culture collection) were grown in RPMI1640 culture medium containing 2 mM L-glutamine, 4.5 g/L glucose, 10 mM HEPES, and 1.0 mM sodium pyruvate, 10% FBS, cultures at 37° C. with 5% CO2. For standard competition assays, confluent cells grown in 24-well plates were rinsed and preincubated for 10 min at 37° C. in assay buffer (Hank's Balanced Salt Solution containing 0.1% DMSO, 10 mM HEPES) plus test compounds (at their final concentrations of 0.01-100 μM). After having discarded the preincubation media, the cells were incubated for 4 min in 0.2 ml assay buffer containing 10 nM [^3H] anandamide (137.6 Ci/mmol, New England Nuclear) plus test compounds. Reactions were stopped by removing the incubation media and rinsing the cells three times with 0.5 ml of ice-cold HBSS buffer containing 0.1% fatty acid-free Bovine Serum Albumin (sigma). Radioactive material in Triton X-100 cell extracts was measured by liquid scintillation counting. A minimum of three independent experiments conducted in six replicates was used to define the concentration needed to produce half-maximal inhibition (IC50) for each compound. IC50 values were obtained by nonlinear regression fitting of the data, using the PRIZM software package. Data are expressed as mean±SEM.

[5] = with PMSF (second value of cell), read-out: Ki CB1 (nM) (o/w PMSFQ)
[6] = without PMSF (first value of cell), read-out: Ki CB1 (nM) (o/w PMSFQ)
[7] = with PMSF (second value of cell), read-out: Ki CB1 (nM) (o/w PMSF)
[8] = without PMSF (first value of cell), read-out: Ki CB1 (nM) (o/w PMSF)

T3 sequence (P47936 whole entry): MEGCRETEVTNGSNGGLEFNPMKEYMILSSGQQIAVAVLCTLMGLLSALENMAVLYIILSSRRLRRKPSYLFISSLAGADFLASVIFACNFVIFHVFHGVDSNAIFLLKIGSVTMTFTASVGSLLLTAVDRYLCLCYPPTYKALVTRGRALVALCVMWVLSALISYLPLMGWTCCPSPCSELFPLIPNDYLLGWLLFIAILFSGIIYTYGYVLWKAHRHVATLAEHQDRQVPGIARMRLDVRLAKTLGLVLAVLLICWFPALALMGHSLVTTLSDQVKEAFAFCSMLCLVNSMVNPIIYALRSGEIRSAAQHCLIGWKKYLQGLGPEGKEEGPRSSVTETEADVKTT
T1 sequence (P20272 whole entry): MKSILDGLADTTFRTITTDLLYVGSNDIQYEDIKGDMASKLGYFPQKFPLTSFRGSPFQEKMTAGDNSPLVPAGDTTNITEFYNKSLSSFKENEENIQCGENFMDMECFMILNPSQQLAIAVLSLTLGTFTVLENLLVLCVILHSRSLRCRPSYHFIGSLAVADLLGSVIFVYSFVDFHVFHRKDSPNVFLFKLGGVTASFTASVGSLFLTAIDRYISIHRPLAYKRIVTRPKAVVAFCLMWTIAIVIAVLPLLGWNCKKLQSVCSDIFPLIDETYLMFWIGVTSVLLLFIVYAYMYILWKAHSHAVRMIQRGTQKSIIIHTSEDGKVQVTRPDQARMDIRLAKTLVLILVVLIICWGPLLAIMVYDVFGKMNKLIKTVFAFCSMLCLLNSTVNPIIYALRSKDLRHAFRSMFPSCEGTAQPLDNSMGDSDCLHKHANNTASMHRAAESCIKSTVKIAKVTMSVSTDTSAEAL

SMILES | Ki [1, 5] | Ki [1, 6] | FAAH % Inhibition [2] | Ki [3] | Ki [1, 7] | Ki [1, 8] | IC50 ([4]; read-out: IC50 (AT inhib.)) | IC50 ([4]; read-out: IC50 AT inhibition)
CC(C)NC(=O)CCC/C=C\C/C=C\C/C=C\C/C=C\CCCCN=C=S [Compound A10] | 7.7 nM | 95.2 nM | 84% | 52.7 nM |  |  |  | 
CCCCC/C=C\C/C=C\C/C=C\C/C=C\CCCCOC(=O)N[C@H](C)CO [Compound B1] |  |  | 14.7% | 5070 nM | 1440 nM | 1330 nM | 7.1 µM | 
CCCCCC=CCC=CCC=CCC=CCCCCOC(=O)NCC(C)O (stereo not drawn) [Compound B4] |  |  | 7% | 254 nM | 320 nM | 338 nM | 0.4 µM | 
CCCCC/C=C\C/C=C\C/C=C\C/C=C\CCCCOC(=O)NC1CCC1 [Compound B7] |  |  |  | 5310 nM | 995 nM | 1410 nM | 15.5 µM | 
N#CCCCCC/C=C\C/C=C\C/C=C\C/C=C\CCCC(=O)NC1CC1 [Compound A19] | 0.04 nM | 32.9 nM | 57% | 5.7 nM |  |  |  | 23.5 µM
CCCCCN(C)C/C=C\C/C=C\C/C=C\C/C=C\CCCCNC(=O)COC [Compound A22] |  |  |  | 224 nM |  |  |  | 
CCCCC/C=C\C/C=C\C/C=C\C/C=C\CCCCOC(=O)N[C@@H](C)CO [Compound B2] |  |  | 14.3% | 2150 nM | 996 nM | 1100 nM | 6.4 µM | 
O=C(CCC/C=C\C/C=C\C/C=C\C/C=C\CCCCN=C=S)NCC1CC1 [Compound A11] | 34.2 nM | 91.7 nM | 90% | 70.9 nM |  |  |  | 
CCCCCN(C)C/C=C\C/C=C\C/C=C\C/C=C\CCCCNC(C)=O [Compound A23] | 627 nM | 813 nM |  | 1760 nM |  |  |  | 
CCCCC/C=C\C/C=C\C/C=C\C/C=C\CCCCOC(=O)NC(C)C [Compound B5] |  |  | 4.5% | 543 nM | 343 nM | 510 nM | 21.9 µM | 
[N-]=[N+]=NCCCCC/C=C\C/C=C\C/C=C\C/C=C\CCCC(=O)NC1CC1 [Compound A5] | 0.9 nM | 26.7 nM | 7% | 57.6 nM |  |  |  | 2.9 µM
CCCCCN(C)C/C=C\C/C=C\C/C=C\C/C=C\CCCCNC(C)=O [Compound A25] | 1030 nM | 1500 nM |  | 3650 nM |  |  |  | 
[N-]=[N+]=NCCCCC/C=C\C/C=C\C/C=C\C/C=C\CCCC(=O)NC1=NCCS1 [Compound A14] | 144 nM | 428 nM | 48% | 243 nM |  |  |  | 1.2 µM
C[C@H](CO)NC(=O)CCC/C=C\C/C=C\C/C=C\C/C=C\CCC12CC3CC(CC(C3)C1)C2 [Compound A29] |  |  |  | 5670 nM |  |  |  | 
CCCCCN(C)C/C=C\C/C=C\C/C=C\C/C=C\CCCCNC(=O)COC [Compound A24] |  |  |  | 435 nM |  |  |  | 
O=C(CCC/C=C\C/C=C\C/C=C\C/C=C\CCCCCO)NC1CC1 [Compound A17] | 3.9 nM | 209 nM | 61% | 38.7 nM |  |  |  | 35.3 µM
[N-]=[N+]=NCCCC/C=C\C/C=C\C/C=C\C/C=C\CCCC(=O)NC1CCC1 [Compound A9] | 31.9 nM | 112 nM | 58% | 72.4 nM |  |  |  | 
[N-]=[N+]=NCCCC/C=C\C/C=C\C/C=C\C/C=C\CCCC(=O)NC1=NCCS1 [Compound A8] | 106 nM | 1300 nM | 49% | 513 nM |  |  |  | 2.3 µM
COc1cc(CNC(=O)CCC/C=C\C/C=C\C/C=C\C/C=C\CCCCCN=[N+]=[N-])ccc1O [Compound A15] | 13.2 nM | 48.8 nM | 38% | 74.7 nM |  |  |  | 
CCCCC/C=C\C/C=C\C/C=C\C/C=C\CCCCNC(=O)OC[C@H](C)O [Compound B16] |  |  |  | 289 nM | 686 nM | 1200 nM | 3.29 µM | 
C[C@H](CO)NC(=O)CCC/C=C\C/C=C\C/C=C\C/C=C\C12CC3CC(CC(C3)C1)C2 [Compound A28] |  |  |  | 3460 nM |  |  |  | 
CCCCC/C=C\C/C=C\C/C=C\C/C=C\CCCCOC(=O)NC1CC1 [Compound B6] |  |  |  | 983 nM | 75.1 nM | 181 nM | 15.5 µM | 
CCCCC/C=C\C/C=C\C/C=C\C/C=C\CCCCOC(=O)NC1CCCCC1 [Compound B8] |  |  |  | 781 nM | 1470 nM | 3960 nM | 33 µM | 
CCCCCN(C)C/C=C\C/C=C\C/C=C\C/C=C\CCCC(=O)NC1CC1 [Compound A21] | 66.3 nM | 76.5 nM |  | 238 nM |  |  |  | 

Source: patent US8202893B2, “Cannabinergic lipid ligands” (University of Connecticut, priority 2004, dated 2012)
